Measurements as given in patent publication US8242082B2, “Antibacterial peptide” (Seikagaku Corporation, priority 2004, dated 2012).
“Also recorded” adds a separate entry of the source. No end group written: not given here.

Columns and labels:
[1] = test system: binding between LPS and RAW 246.7 cells; assay: Determination of LPS-cell-binding inhibitory effect (Alexa 488-labeled LPS, FACS); assay type: cell-based; details: for LPS-cell-binding inhibitory effect: RAW 246.7 cells, Alexa 488-labeled LPS 100 ng/mL; for LPS-cell-binding inhibitory effect, comparison among test substances: relative ranking from the figures
Procedure: RAW 246.7 cells (macrophage cell strain) were cultured by use of an RPMI 1640 medium containing 10% FCS and collected. The collected cells were diluted with the same medium so that the cell concentration was adjusted to 5×10^5/mL. To the diluted liquid (500 μL), a test substance (5 μL) was added, and the mixture was subjected to shaking culture at 37° C. for 10 minutes. Subsequently, LPS that had been labeled with Alexa 488 (final concentration: 100 ng/mL) was added to the culture, and the mixture was subjected to shaking culture at 37° C. for 15 minutes. The collected cells were washed with PBS (3 mL×2) and suspended again in PBS (300 μL). Binding of Alexa 488-labeled LPS was measured through FACS. Control samples (a sample containing no labeled LPS (background) and an antibacterial-peptide-free sample (maximum LPS binding degree) were treated similarly, and the degree of the inhibitory effect on binding between LPS and RAW 246.7 cells was determined on the basis of comparison with control samples.
In a manner similar to that of the aforementioned <2-2>, the LPS-cell-binding inhibitory effect of the same test substances was determined. […] In FIG. 7, the test results of 1-18, 1-18m, and 1-18 m2 are represented by white dots, black dots, and black squares, respectively (X-axis: test substance concentration, Y-axis: percent binding of LPS to cells).

[2] = test system: E. coli, S. aur, MSSA, and MRSA; assay: Determination of antibacterial (bacteriocidal) effect, Alamar Blue; assay type: cell-based, Escherichia coli; Staphylococcus aureus; details: for antibacterial effect: gram-negative and gram-positive bacteria, 37° C. for six hours, absorbance difference with Alamar Blue; for antibacterial effect, comparison among test substances: relative ranking from the figures
Procedure: Each of E. coli, S. aur, MSSA, and MRSA was subjected to shaking culture overnight at 37° C. by use of a Muller-Hinton medium (product of DIFCO), and the cells precipitated through centrifugation were separated and washed with a Phenol Red-free RPMI 1640 medium. Strains of E. coli, S. aur, MSSA, and MRSA were prepared so that the cell concentrations were adjusted to 1×10^8 CFU/mL, 2×10^8 CFU/mL, 2×10^8 CFU/mL, and 2×10^8 CFU/mL, respectively, the concentrations being determined from the corresponding absorbance values at 650 nm by means of a spectrophotometer.
By use of a 96-well plate, each cell suspension (1×10^6 CFU/mL) (100 μL), a test substance (10 μL), an RPMI 1640 medium (70 μL), and an Alamar Blue reagent (product of BIOSOURCE) (20 μL) were admixed. In the presence of Alamar Blue, pink fluorescence attributed to live cells is observed, whereas the admixture remains blue when the cells are dead.
Each admixture was incubated at a constant temperature of 37° C. for six hours, and the difference between absorbance at 560 nm and that at 595 nm was obtained.
The procedure of the aforementioned <2-1> was repeated, except that 1-18, 1-18m, and 1-18 m2 were tested and the difference between absorbance at 550 nm and that at 590 nm was measured, to thereby determine the antibacterial effect of the test substances with respect to each of E. coli, S. aur, MSSA, and MRSA. […] In FIG. 6, the test results of 1-18 are represented by “CAP11,” and the black dots, white dots, black squares, and white squares denote the antibacterial effects to E. coli, S. aur, MSSA, and MRSA, respectively (X-axis: test substance concentration, Y-axis: difference between absorbance at 550 nm and that at 590 nm).

[3] = test system: Candida albicans (CA53133 strain); assay: Determination of antibacterial (bacteriocidal) effect (antifungal effect) to fungi, Alamar Blue; assay type: cell-based; details: for antibacterial (bacteriocidal) effect to fungi: Candida albicans, 35° C. for fourteen hours
Procedure: Candida albicans (CA53133 strain) was grown in Sabouraud dextrose agar. Colonies formed in the agar were collected and suspended to serum-free and Phenol Red-free RPM11640 liquid medium (SIGMA). The concentration of cells in the medium was determined from the corresponding absorbance value at 550 nm by means of spectrophotometer, and the concentration is adjusted to 0.5−2.5×10^4 CFU/mL. By use of a 96-well plate, each cell suspension (0.5-2.5×10^4 CFU/mL) (20 μL), a test substance (CAP11, 1-18 or 1-18 m2) (10 μL), an RPMI 1640 liquid medium (150 μL), and an Alamar Blue reagent (product of BIOSOURCE) (20 μL) were admixed. Each admixture was incubated at a constant temperature of 35° C. for fourteen hours, and the difference between absorbance at 550 nm and that at 595 nm was obtained.

9-26: partial peptide, 9th to 26th amino acid residues of the CAP11 monomer
LPS-cell-binding inhibitory effect [1]: an LPS-cell-binding inhibitory effect | antibacterial effect [2]: exhibited an antibacterial effect

16-33: partial peptide, 16th to 33th amino acid residues of the CAP11 monomer (LGRKIGKTGRKVWKAWRE; A partial peptide of CAP11)
LPS-cell-binding inhibitory effect [1]: an LPS-cell-binding inhibitory effect | antibacterial effect [2]: exhibited an antibacterial effect

GLRKKFRKTRKRIQKLGR [1-18]
antibacterial (bacteriocidal) effect to fungi [3]: exhibit an antibacterial (bacteriocidal) effect to fungi | LPS-cell-binding inhibitory effect [1]: exhibit an LPS-cell-binding inhibitory effect | LPS-cell-binding inhibitory effect, comparison among test substances [1]: most potent; also recorded: then 1-18 | antibacterial effect [2]: exhibited an antibacterial effect; also recorded: exhibit an antibacterial (bacteriocidal) effect | antibacterial effect, comparison among test substances [2]: most potent antibacterial effect; also recorded: then 1-18

GLRKLFRKLLKLIQKLLR [1-18m]
LPS-cell-binding inhibitory effect [1]: exhibit an LPS-cell-binding inhibitory effect | antibacterial effect [2]: exhibit an antibacterial (bacteriocidal) effect

KLRKLFRKLLKLIRKLLR [1-18 m2, synthesized and substituted form of CAP11 (1-18)]
antibacterial (bacteriocidal) effect to fungi [3]: exhibit an antibacterial (bacteriocidal) effect to fungi | antifungal effect, comparison among test substances ([3]; relative ranking from FIG. 8): strongest antifungal effect | LPS-cell-binding inhibitory effect [1]: exhibit an LPS-cell-binding inhibitory effect | LPS-cell-binding inhibitory effect, comparison among test substances [1]: strongest effect | antibacterial effect [2]: exhibit an antibacterial (bacteriocidal) effect | antibacterial effect, comparison among test substances [2]: strongest antibacterial effect

monomer: CAP11 monomer having 43 amino acid units and no cysteine disulfide bond (GLRKKFRKTRKRIGKLGRKIGKTGRKVWKAWREYGQIPYPCRI; A partial peptide of CAP11) [reference compound]
antibacterial (bacteriocidal) effect to fungi [3]: exhibit an antibacterial (bacteriocidal) effect to fungi | LPS-cell-binding inhibitory effect [1]: an LPS-cell-binding inhibitory effect | LPS-cell-binding inhibitory effect, comparison among test substances [1]: No significant difference | antibacterial effect [2]: exhibited an antibacterial effect
